According to article PMC6882824, “Engineering of chimeric peptides as antagonists for the G protein-coupled receptor, RXFP4” (Scientific Reports, 2019):
“Also recorded” adds a separate entry of the source. Like-named read-outs stand apart in the source and are kept apart here. Bridge positions count the residues as written; N and C are the ends. Peptide text beside a SMILES is read from it. I, II: the chains in the order shown.

How the values were obtained:
RXFP3 [1] = target: T1, RXFP3 (Homo sapiens, UniProt Q9NSD7); assay: Competition binding in CHO-K1-RXFP3 cells (Eu-H3B1-22R)
T1 construct: expressed in transfected cells; host or cells: CHO-K1 (ATCC), stably transfected
T1 sequence (Q9NSD7 1-469): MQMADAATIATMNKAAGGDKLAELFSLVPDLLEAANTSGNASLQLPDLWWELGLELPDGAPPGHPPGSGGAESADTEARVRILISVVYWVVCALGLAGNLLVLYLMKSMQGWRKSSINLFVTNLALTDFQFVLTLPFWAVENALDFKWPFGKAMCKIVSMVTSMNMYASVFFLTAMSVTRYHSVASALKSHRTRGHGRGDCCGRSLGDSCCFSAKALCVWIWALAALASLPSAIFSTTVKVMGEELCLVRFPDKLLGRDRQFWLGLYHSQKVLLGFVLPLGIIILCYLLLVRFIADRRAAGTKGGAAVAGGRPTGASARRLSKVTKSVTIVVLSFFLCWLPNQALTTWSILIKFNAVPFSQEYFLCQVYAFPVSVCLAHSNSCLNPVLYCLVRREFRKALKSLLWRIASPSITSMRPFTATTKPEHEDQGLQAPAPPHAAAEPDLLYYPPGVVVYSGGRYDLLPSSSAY
Procedure: (§1) Chinese hamster ovary CHO-K1 cells (sourced from American Type Culture Collection (ATCC), Maryland, USA) stably transfected with RXFP3[33] or RXFP4[9] were plated out onto precoated poly-L-lysine 96-well view plates at a density of 50 000 cells per well. Medium was aspirated off and the cells were washed with phosphate-buffered saline (PBS) before competition binding assays were performed with 5 nM Eu-H3B1–22R[34] (RXFP3 ligand) or 5 nM Eu-DTPA-mINSL5[9] (RXFP4 ligand) as previously described. Competition binding curves were performed in triplicate and each experiment was performed independently at least three times. Fluorescent measurements were carried out on a BMG POLARstar plate reader (BMG Labtech, Melbourne, Australia. Pooled data are presented as mean ± S.E of specific binding and are fitted using one-site binding curve in GraphPad Prism version 8 (GraphPad Inc., San Diego, USA). Statistical analyses were conducted using one-way analysis of variance with uncorrected Fisher’s least significant difference (LSD) post-hoc analysis in GraphPad Prism version 8.

RXFP3 [2] = target: T1, RXFP3; assay: cAMP agonist assay (inhibition of forskolin-induced cAMP, pCRE β-galactosidase reporter) in CHO-K1-RXFP3 cells; assay type: cell-based; settings: CHO-K1-RXFP3 cells, inhibition of 5 µM forskolin-induced cAMP, 6 hours; mean ± SEM, n in cell
Procedure: (§2) The peptides were tested for their ability to inhibit forskolin induced cAMP activity in CHO-K1-RXFP3 or CHO-K1-RXFP4 cells transfected with a pCRE (cAMP Response Element) β-galactosidase reporter plasmid as previously described[9],[34]. For agonist assays cells were stimulated with forskolin (5 µM for RXFP3, 1 µM for RXFP4) plus or minus increasing concentrations of each peptide for 6 hours. For antagonist assays cells were stimulated with forskolin as in agonist assays plus increasing concentrations of each peptide for 10 minutes followed by stimulation with agonist at an ~EC80 concentration for a further 6 hours (10 nM Analogue 2 for RXFP3 and 16.6 nM Analogue 13 for RXFP4). Each peptide was tested in triplicate and each experiment was performed independently at least three times. Agonist data was expressed as the % Forskolin activity whereby 100% was defined as Forskolin alone and 0% as maximum agonist stimulation (1 µM Analogue 2 for RXFP3 and 1 µM Analogue 13 for RXFP4). […] Data were analysed and plotted using GraphPad PRISM 8 and are expressed as the mean ± SEM of the pooled data. Statistical analysis was conducted using one-way ANOVA with Uncorrected Fisher’s LSD post-hoc analysis in GraphPad Prism version 8.

RXFP3 [3] = target: T1, RXFP3; assay: cAMP antagonist assay against 10 nM analogue 2 in CHO-K1-RXFP3 cells; assay type: cell-based; settings: for Emax: SEM, read-out: RXFP3 Emax (antagonist efficacy)
Procedure: as §2

RXFP3 [4] = settings: SK-N-MC/CRE-β-gal cells expressing human RXFP3; cited from earlier work
Source text: Here we have chemically synthesized and pharmacologically characterized ΔR3/I5 for binding and cAMP potency in CHO cells stably expressing RXFP3 (CHO-RXFP3) or RXFP4 (CHO-RXFP4).

RXFP3 [5] = target: T1, RXFP3; settings: cited from earlier work
RXFP3 [6] = settings: HEK-293s cells expressing rat and human RXFP3; cited from earlier work
RXFP3 [7] = target: T1, RXFP3; settings: CRE-reporter gene assay; cited from earlier work
RXFP4 [8] = target: T2, RXFP4 (Homo sapiens, UniProt Q8TDU9); set-up: expressed in transfected cells; method as in PMID 17606621; settings: SK-N-MC/CRE-β-gal cells expressing human RXFP4; cited from earlier work
T2 sequence (Q8TDU9 whole entry): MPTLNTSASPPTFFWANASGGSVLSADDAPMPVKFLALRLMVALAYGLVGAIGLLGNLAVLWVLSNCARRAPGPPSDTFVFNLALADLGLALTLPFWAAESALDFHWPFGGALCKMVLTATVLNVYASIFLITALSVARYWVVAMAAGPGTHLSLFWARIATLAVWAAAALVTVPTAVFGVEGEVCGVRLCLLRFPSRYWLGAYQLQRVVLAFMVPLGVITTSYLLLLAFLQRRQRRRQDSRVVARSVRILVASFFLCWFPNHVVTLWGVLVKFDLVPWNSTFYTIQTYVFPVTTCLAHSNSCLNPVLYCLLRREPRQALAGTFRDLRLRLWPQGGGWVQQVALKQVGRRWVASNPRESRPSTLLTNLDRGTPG

RXFP4 [9] = target: T2, RXFP4; assay: Competition binding in CHO-K1-RXFP4 cells (Eu-DTPA-mINSL5); set-up: expressed in transfected cells; host or cells: CHO-K1 (ATCC), stably transfected
Procedure: as §1

RXFP4 [10] = target: T2, RXFP4; assay: cAMP agonist assay (inhibition of forskolin-induced cAMP, pCRE β-galactosidase reporter) in CHO-K1-RXFP4 cells; assay type: cell-based; set-up: expressed in transfected cells; host or cells: CHO-K1 (ATCC), stably transfected; settings: CHO-K1-RXFP4 cells, inhibition of 1 µM forskolin-induced cAMP, 6 hours; mean ± SEM, n in cell
Procedure: as §2

RXFP4 [11] = target: T2, RXFP4; assay: cAMP antagonist assay against 16.6 nM analogue 13 in CHO-K1-RXFP4 cells; assay type: cell-based; set-up: expressed in transfected cells; host or cells: CHO-K1 (ATCC), stably transfected; settings: for Emax: SEM, read-out: RXFP4 Emax (antagonist efficacy)
Procedure: as §2

SMILES | Ki (RXFP3 [1]; SEM) [µM] | RXFP3 Activity pEC50 (RXFP3 [2]) | IC50 (RXFP3 [3]) [µM] | Emax (RXFP3 [3]) [%] | Agonist activity at RXFP3 (original report) (RXFP3 [4]) | Agonism of p38MAPK, ERK1/2 and cAMP signalling at RXFP3 (RXFP3 [5]) | Agonism in [35S]-GTPγS binding, cAMP activation and dynamic mass redistribution (RXFP3 [6]) | Agonist activity in CHO-RXFP3 cells (RXFP3 [7]) | Agonist activity at RXFP4 (original report) (RXFP4 [8]) | Ki (RXFP4 [9]; SEM) [µM] | RXFP4 Activity pEC50 (RXFP4 [10]) | IC50 (RXFP4 [11]) [µM] | Emax (RXFP4 [11]) [%] | Ki (RXFP3 [1]; CHO-K1 cells stably transfected with RXFP3, competition with 5 nM Eu-H3B1-22R, read-out: RXFP3 Binding Ki) [µM] | IC50 (RXFP3 [3]; CHO-K1-RXFP3 cells, peptide 10 minutes, then 10 nM analogue 2 for 6 hours, 5 µM forskolin, mean ± SEM, read-out: RXFP3 Antagonist potency pIC50 (converted)) [µM] | Ki (RXFP4 [9]; CHO-K1 cells stably transfected with RXFP4, competition with 5 nM Eu-DTPA-mINSL5, read-out: RXFP4 Binding Ki) [µM] | IC50 (RXFP4 [11]; CHO-K1-RXFP4 cells, block of 16.6 nM analogue 13, read-out: RXFP4 Antagonist potency IC50) [µM]
CC[C@H](C)[C@@H]1NC(=O)[C@H](Cc2ccccc2)NC(=O)[C@H](CCC(=O)O)NC(=O)[C@H](CCCNC(=N)N)NC(=O)CNC(=O)[C@@H](NC(=O)[C@H](CC(C)C)NC(=O)[C@H](CCCNC(=N)N)NC(=O)[C@@H](NC(=O)CNC(=O)[C@H](Cc2ccc(O)cc2)NC(=O)[C@@H]2CCCN2C(=O)[C@H](C)NC(=O)[C@H](C)NC(=O)[C@@H](N)CCCNC(=N)N)C(C)C)CSSC[C@@H]2NC(=O)[C@@H](NC(=O)[C@H](CC(C)C)NC(=O)[C@@H](NC(=O)[C@H](CCC(N)=O)NC(=O)[C@H](CC(C)C)NC(=O)[C@H](CC(=O)O)NC(=O)[C@@H]3CCC(=O)N3)[C@@H](C)O)CSSC[C@H](NC(=O)CNC(=O)[C@H](CC(=O)O)NC(=O)[C@H]([C@@H](C)O)NC2=O)C(=O)N[C@@H](CO)C(=O)N[C@@H](CCSC)C(=O)N[C@@H]([C@@H](C)O)C(=O)N[C@@H](CC(=O)O)C(=O)N[C@@H](CC(C)C)C(=O)N[C@@H](CO)C(=O)N[C@@H](C)C(=O)N[C@@H](CC(C)C)C(=O)N[C@H](C(=O)O)CSSC[C@@H](C(=O)N[C@@H](CCCNC(=N)N)C(=O)O)NC(=O)[C@H]([C@@H](C)O)NC(=O)[C@H](Cc2ccccc2)NC(=O)[C@H]([C@@H](C)CC)NC(=O)[C@H](C(C)C)NC(=O)[C@H](C)NC(=O)[C@H](CCCNC(=N)N)NC1=O [ΔR3/I5, reference compound] | 0.00977 | unable to activate RXFP3; also recorded: No activity (3) | 0.117 | 100 ± 3.8 | no agonist activity | weak partial agonist | partial agonist | no agonist activity | no agonist activity | 0.00457 | Weak partial agonist (5) | 0.0174 | 36.7 ± 7.4 | – | – | – | –
CC[C@H](C)[C@@H]1NC(=O)[C@H](Cc2ccccc2)NC(=O)[C@H](CCC(=O)O)NC(=O)[C@H](CCCNC(=N)N)NC(=O)CNC(=O)[C@@H](NC(=O)[C@H](CC(C)C)NC(=O)[C@H](CCCNC(=N)N)NC(=O)[C@@H](NC(=O)CNC(=O)[C@H](Cc2ccc(O)cc2)NC(=O)[C@H](CCCCN)NC(=O)[C@H](C)NC(=O)[C@H](C)NC(=O)[C@@H](N)CCCNC(=N)N)C(C)C)CSSC[C@H](N)C(=O)N[C@@H]([C@@H](C)O)C(=O)N[C@@H](CC(=O)O)C(=O)NCC(=O)N[C@@H](C)C(=O)N[C@@H](CO)C(=O)N[C@@H](CCSC)C(=O)N[C@@H](CCCCN)C(=O)N[C@@H](CC(=O)O)C(=O)N[C@@H](CC(C)C)C(=O)N[C@@H](CO)C(=O)N[C@@H](C)C(=O)N[C@@H](CC(C)C)C(=O)N[C@H](C(=O)O)CSSC[C@@H](C(=O)N[C@@H](CCCNC(=N)N)C(=O)O)NC(=O)[C@H]([C@@H](C)O)NC(=O)[C@H](Cc2ccccc2)NC(=O)[C@H]([C@@H](C)CC)NC(=O)[C@H](C(C)C)NC(=O)[C@H](C)NC(=O)[C@H](CCCNC(=N)N)NC1=O [Analogue 19] (I: H-RAAKYGVRLCGREFIRAVIFTCR-OH / II: H-CTDGASMKDLSALC-OH; disulfide I:10-II:1, I:22-II:14; N-terminus assumed) | – | No activity (3) | – | 76.3 ± 1.8 | – | – | – | – | – | – | Weak partial agonist (4) | – | 71.3 ± 4.8 | 0.00794 | > 10 | 0.0102 | 0.0794
